For one experiment, the system named is PAE-EGFR cells. Briefly: NOS enzyme activity in EGFR expressing PAE-EGFR cells, NOS kit. The format is cell-based, porcine. As to conditions: for NOS enzyme activity: PAE-EGFR cells. The procedure:
Porcine vascular endothelial cells (PAE) were provided by the Institute of Urology, Peking University. The determination of the effect of icariside II on NOS activity in the endothelial cell is conducted using NOS kit (Cayman Chemical company, Ann Arbor, Mich., USA). Vascular endothelial cells (PAE) were treated with different concentrations of icariside II (0, 10^−9, 10^−8, 10^−7, 10^−6, 10^−5 and 10^−4 M) (sildenafil as the control group). 180 μl lysate was added into each culture well. 20 μl supernatant was used for protein concentration assay with BCA protein kit. And, 100 μl supernatant was analyzed for NOS activity with NOS kit (Cayman Chemical company, Ann Arbor, Mich., USA). NOS activity (units/mg)=[(valueNos-measure−valueNOS-blank)÷(38.3×10^6)]×[(2.15+supernatant volume)÷(15×supernatant volume)]÷[protein concentration of each Petri dish]. 1) The EGFR gene was subcloned into pGFP plasmid to construct pGFP-EGFR expression vector. With Liposome transfection reagent (Qigen), pGFP-EGFR was transfected into PAE cells. After the selection with 1800 μg/ml of G418, a single cell clone was selected. Western blot confirms the stable expression of EGFR in the PAE-EGFR cells.

Experiment [1] has as its system Primary human corpus cavernosum smooth muscle cells (CCSMCs). Nature of the experiment: NOS activity in corpus cavernosum smooth muscle cells. Type of experiment: cell-based. As to the method: Primary human corpus cavernosum smooth muscle cells ([…]) were provided by the Andrology Center of Peking University. The […] of the third passage were cultured in six well plates for two days. Then the cells were treated with icariside II or the sildenafil at a concentration of 0, 10^-9, 10^-8, 10^-7, 10^-6, 10^-5 M; or treated with icariside II (0, 10^-9, 10^-8, 10^-7, 10^-6, 10^-5 M) in the presence or absence of LNNA (4×10^-4 M). The control group was cultured with DMEM only. After 24 hours, the cells were washed three times and 180 μl lysis buffer was added into each well; 60 μl cell suspension was taken for protein concentration assay with BCA protein kit; 100 μl cell suspension was taken for NOS activity test. NOS activity (units/mg protein)=[(valueNOS-measure-valueNOS-blank)÷(38.3×10^6)]×[(2.15+supernatant volume)÷(15×S supernatant volume)]÷[protein concentration in each well].

Experiment [2] concerns Human corpus cavernosum smooth muscle cells. Nature of the experiment: RT-PCR mRNA expression of NOS isoforms and PDE5a in corpus cavernosum smooth muscle cells. The format is cell-based. As to conditions: 12.5 μM; 1 day and 2 days treatment. The procedure:
Human corpus cavernosum smooth muscle cells were grown in 60 mm Petri dishes. […] Then the treated CCSMCs were lysed with Trizol and total RNA was extracted and reverse transcribed into cDNA. PCR amplification was carried out using eNOS, iNOS, nNOS and PDE5a specific primers and the specific PCR products represent the mRNA levels.

Experiment [3] deals with MPG nerve axon of old rats. Briefly: MPG (major pelvic ganglion) culture, nerve axon growth. Type of experiment: cell-based, rat. Particulars: for MPG nerve axon growth compared to control group: old rats; for MPG nerve axon growth (length of the longest nerve axon): old rats (24-month-old), n = 9. As to the method: The 24-month-old Sprague-Dawley male rats were used. All experimental animals used in this study were under a protocol approved by the Institutional Animal Care and Use Committee. Rats were anesthetized by intraperitoneal injection of pentobarbital sodium (200 mg/kg). After midline incision on abdomen, major pelvic ganglion was carefully dissected from prostate. MPG culture and treatment: the Bilaterally MPG was rapidly removed and after washing with PBS, DCR were stripped from MPG and cut into 3 pieces with the same size. Reduced Growth Factor Matrigel (RGFM) was diluted three times with serum free RPMI-1640 medium and placed in the 35 mm Petri dish on ice. The diluted RGFM were poured onto the cold sterilized glass cover slip and incubated at 37° C. for 1 hour in 35 mm Petri dishes to make the RGFM steady. Then each MPG was embedded in 40 μl of pre-cooled RGFM and maintained at 37° C. for 5 minute and cultured in RPMI 1640 with 1% penicillin-streptomycin that is maintained in humidified cell culture incubator containing 5% CO2 at 37° C. The cultured MPG tissues were randomly divided into 3 groups: control group, icariside II and sildenafil groups. […] Three MGP from the younger groups and the three MPG from the older groups were cultured with designation dose for 48-72 hours. Measurement of nerve axon growth: at the 48 and 72 hours, Nikon DXM1200 digital camera connected to Zeiss Axiovert microscope and ACT-1 software (20 times magnification) was used to observe the nerve axon growth on the MPG. The digital image was analyzed by […] 4000 and the length of the longest nerve axon was calculated.

The test system of experiment [4] is Primary human corpus cavernosum smooth muscle cells (CCSMCs). Nature of the experiment: cGMP/cAMP biosynthesis in corpus cavernosum smooth muscle cells. The format is cell-based. Particulars: 4 hours; for effect on the cAMP concentration: P>0.05. The procedure:
Primary human corpus cavernosum smooth muscle cells ([…]) were provided by the Andrology Center of Peking University. The […] of the third passage were cultured in six plates for two days. Then the cells were treated with icariside II or the sildenafil at the concentration of 0, 10^-9, 10^-8, 10^-7, 10^-6, 10^-5, M for 4 hours; or treated with icariside II or the sildenafil at the concentration of 0, 10^-9, 10^-8, 10^-7, 10^-6, 10^-5, 10^-4 M for 4 hours followed by a treatment with 10^-5 M of SNP for 30 min. The control group was cultured with DMEM only. Then to each well was added 0.4 mL 0.1 M HCl and incubated at room temperature for 20 minutes. Then the lysed cells are harvested. The cell suspension was collected in centrifuge tubes and centrifuged at 1000 g for 10 minutes; 60 μl cell suspension was taken for protein concentration assay with the BCA protein kit, and 100 μl cell suspension was taken for cGMP or cAMP concentration test. The concentration of cGMP [pmol/(mg prot·min)]=[cGMP or cAMP concentration×supernatant volume]÷reaction time×protein concentration in each well×supernatant volume].

For the compound `CCCc1nn(C)c2c(=O)[nH]c(-c3cc(S(=O)(=O)N4CCN(C)CC4)ccc3OCC)nc12` [Sildenafil, sildenafil, reference compound], the NOS enzyme activity is recorded as 8.99 ± 0.87 u/mg in the experiment with PAE-EGFR cells (10^−5 M); 8.4 ± 0.84 u/mg in the experiment on PAE-EGFR cells (10^−6 M); 8.53 ± 0.84 u/mg in the experiment on PAE-EGFR cells (10^−7 M); 8.37 ± 0.82 u/mg in the experiment with PAE-EGFR cells (10^−8 M); 8.48 ± 0.85 u/mg in the experiment with PAE-EGFR cells (10^−9 M). Further, the “effect on NOS activity in CCSMCs” value in experiment [1] (10^−9 to 10^−5 M, 24 hours) is on record as “no significant difference”. Moreover, the “PDE5a mRNA level” value in experiment [2] is “significantly reduced”. In experiment [2], the “eNOS mRNA level” value is on record as “not significantly changed”. In addition, the “iNOS mRNA level” value in experiment [2] is on record as “slightly increased after 2 days treatment”. Besides, the “nNOS mRNA level” value in experiment [2] was “not significantly changed”. Further, the “MPG nerve axon growth compared to control group” value in experiment [3] (10 nM, 100 nM, 1000 nM) is “did not significantly affect”. Further, the “MPG nerve axon growth (length of the longest nerve axon)” value in experiment [3] (10 nM) stood at 215 ± 2.6 μm; in experiment [3] (100 nM), 238 ± 3.5 μm; in experiment [3] (1000 nM), 219 ± 3.2 μm. Besides, in experiment [4], the “effect on the cAMP concentration” value is listed as “no significant effect”.

Turning to icariside II, in the experiment with PAE-EGFR cells (10^−8 M), the “NOS activity in PAE-EGFR cells higher than the activity in PAE cells” value was determined as 4.66 u/mg. In addition, the NOS enzyme activity in the experiment with PAE-EGFR cells (10^−5 M) was found to be 22.74 ± 2.27 u/mg; in the experiment on PAE-EGFR cells (10^−6 M), 23.91 ± 2.36 u/mg; in the experiment with PAE-EGFR cells (10^−7 M), 22.79 ± 2.45 u/mg; with PAE-EGFR cells (10^−8 M), 15.37 ± 1.51 u/mg; in the experiment with PAE-EGFR cells (10^−8 M, listed as icariside II), 15.37±1.49 u/mg; in the experiment on PAE-EGFR cells (10^−9 M), 11.72 ± 1.21 u/mg. Further, in experiment [1] (10^−6 M, 24 hours, untreated 0.46 units/mg), the “NOS activity (peak)” value is 4.19 units/mg. In experiment [1] (10^−8 M, 24 hours, untreated 0.46 units/mg), the NOS activity was 1.59 units/mg. For the same compound, the “peak value of NOS activity in presence of LNNA” value in experiment [1] (with LNNA 4×10^−4 M) was determined as 2.67 unit/mg. In addition, the “PDE5a mRNA level” value in experiment [2] is “significantly decreased”. In experiment [2], the “eNOS mRNA level” value is reported as “not changed”. In addition, in experiment [2], the “iNOS mRNA level” value was “slightly increased”. In experiment [2], the “nNOS mRNA level” value is “significantly increased”. Moreover, the “MPG nerve axon growth compared to control group” value in experiment [3] (10 nM, 100 nM, 1000 nM) is recorded as “significantly increased”. Moreover, the “MPG nerve axon growth (length of the longest nerve axon)” value in experiment [3] (10 nM) is on record as 295 ± 5.3 μm*; in experiment [3] (100 nM) it was 325 ± 4.1 μm*; in experiment [3] (1000 nM), 406 ± 4.3 μm*. Moreover, in experiment [4], the “effect on the cAMP concentration” value is reported as “no significant effect”. The EC50 in experiment [4] (in presence of 10^−5 M SNP, read-out: EC50 of cGMP concentration increase) was determined as 1020 nM.

For the origin of these results see patent US8530433B2, “Use of icariside II in manufacture of products for preventing or treating male or female sexual dysfunction” (Bjo-Biomed Ltd, priority 2008, dated 2013).
